Experimental data published in publication PMC6245189 (Molecules, 2008).

Assays:
[1] = target: T1, bovine testes hyaluronidase (BTH) (Bos taurus, UniProt Q2YDK3); test: Morgan-Elson assay at pH […]; assay type: biochemical; settings: read-out: IC50 [μM] / 3.5
T1 sequence (Q2YDK3 36-553): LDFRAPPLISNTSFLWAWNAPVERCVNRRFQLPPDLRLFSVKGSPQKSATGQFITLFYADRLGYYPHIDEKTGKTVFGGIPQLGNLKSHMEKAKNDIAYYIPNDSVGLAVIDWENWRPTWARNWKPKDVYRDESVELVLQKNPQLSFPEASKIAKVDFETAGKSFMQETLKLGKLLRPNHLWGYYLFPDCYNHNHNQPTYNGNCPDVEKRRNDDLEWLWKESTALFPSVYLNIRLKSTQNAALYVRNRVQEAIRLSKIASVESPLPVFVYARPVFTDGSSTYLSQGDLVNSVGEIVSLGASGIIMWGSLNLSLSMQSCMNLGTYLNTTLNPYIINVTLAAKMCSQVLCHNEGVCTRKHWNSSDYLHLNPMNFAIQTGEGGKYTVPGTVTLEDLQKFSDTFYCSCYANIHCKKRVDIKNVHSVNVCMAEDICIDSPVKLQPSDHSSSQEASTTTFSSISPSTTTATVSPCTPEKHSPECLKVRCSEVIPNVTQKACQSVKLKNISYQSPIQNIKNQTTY

[2] = target: T1, bovine testes hyaluronidase (BTH); test: stains-all assay at pH […] and Morgan-Elson assay at pH […]; assay type: biochemical; settings: read-out: IC50 [μM] / pH7

IC50 [1]	IC50 [2]	Compound
8 µM		CCCCCCCCCCCCCCCC(=O)OC[C@H](O)[C@H]1OC(=O)C(O)=C1O [6-palmitoyl-L-ascorbic acid]
	107 µM	Oc1ccc(-c2[nH]c3ccccc3c2-c2ccccc2)cc1 [compound 12, 4-(3-Phenyl-1H-indol-2-yl)phenol]
